Test results taken from patent US10654872B1, “Polymorphs of dolutegravir and salts thereof” (Laurus Labs Limited, priority 2015, dated 2020).

Assays:
Assay type in all cases: physicochemical
[1] = Stability data of dolutegravir sodium Form-L9 stored at 40±2° C./75±5% RH
Procedure: Dolutegravir sodium Form-L9 was packed in a Low density polyethylene (LDPE) bag with a strip seal, which is again kept in a second low density polyethylene bag with strip seal. The LDPE bag is kept in a high density polyethylene (HDPE) container and well closed and loaded for stability chamber. […] The purity of dolutegravir sodium was analysed using high performance liquid chromatography (“HPLC”) with the conditions is tabulated below: [table]

[2] = Aqueous solubility at different pH buffers, UV quantification
[3] = Thermal stability of Form-L9 in oven at 60° C. and 100° C. (PXRD, DSC); conditions: for Form after heating, DSC / Form after heating, PXRD: 24 hrs
Procedure: Dolutegravir sodium Form-L9 was kept in an oven at 60° C. and 100° C. for 24 hrs.

[4] = Hygroscopic study at 85% relative humidity; conditions: room temperature, one week (24, 48, 72, 168 hours)
Procedure: Dolutegravir sodium Form-L9 was exposed to 85% relative humidity at room temperature for one week and was analyzed by PXRD at different time intervals such as 24 hours, 48 hours, 72 hours and 168 hours. […] The overlaid PXRD pattern of dolutegravir sodium Form-L9 subjected to hygroscopic study at 85% RH is represented as Figure-25.

Des fluoro dolutegravir ([1]; 1 month): 0.08 % w/w | PXRD (polymorphic form) ([1]; 1 month): Form-L9 | Purity by HPLC ([1]; 1 month): 99.9 % w/w | Water content ([1]; 1 month): 1.9 % w/w | Des fluoro dolutegravir ([1]; 2 month): 0.09 % w/w | PXRD (polymorphic form) ([1]; 2 month): Form-L9 | Purity by HPLC ([1]; 2 month): 99.9 % w/w | Water content ([1]; 2 month): 2 % w/w | Des fluoro dolutegravir ([1]; 3 month): 0.10 % w/w | PXRD (polymorphic form) ([1]; 3 month): Form-L9 | Purity by HPLC ([1]; 3 month): 99.8 % w/w | Water content ([1]; 3 month): 2.3 % w/w | Des fluoro dolutegravir ([1]; Initial): 0.09 % w/w | PXRD (polymorphic form) ([1]; Initial): Form-L9 | Purity by HPLC ([1]; Initial): 99.8 % w/w | Water content ([1]; Initial): 2.2 % w/w | Solubility profile versus dolutegravir sodium anhydrous form [2]: comparable | Stability at elevated temperatures ([3]; 60° C. and 100° C. for 24 hours): stable even at elevated temperatures | Form after heating, DSC ([3]; 60° C.): Form-L9 | Form after heating, PXRD ([3]; 60° C.): Form-L9 | Form after heating, DSC ([3]; 100° C.): Form-L9 | Form after heating, PXRD ([3]; 100° C.): Form-L9 | Polymorphic nature after thermal study (PXRD and DSC) ([3]; oven at 60° C. and 100° C. for 24 hrs): same polymorphic nature retained | Polymorphic nature after hygroscopic study [4]: same polymorphic nature retained
Compound: C[C@@H]1CCO[C@H]2Cn3cc(C(=O)NCc4ccc(F)cc4F)c(=O)c(O)c3C(=O)N12 [Form-L9, dolutegravir sodium]
Polymorphic and chemical stability on storage ([1]; at least up to three months, LDPE bags in HDPE container): retained the same polymorphic and chemical identity
